From the Kinase Knowledgebase extract (Sharma et al. 2016)

How the values were obtained:
MAPK14 (human) [1] = target: MAPK14 (human) (UniProt Q16539); assay: Assessment of MAPK14 Kinase Activity
MAPK14 (human) [2] = target: MAPK14 (human) (UniProt Q16539); assay: Inhibition of MAPK14 Kinase Activity

Chain of MAPK14 (human) (Q16539 whole entry, looked up): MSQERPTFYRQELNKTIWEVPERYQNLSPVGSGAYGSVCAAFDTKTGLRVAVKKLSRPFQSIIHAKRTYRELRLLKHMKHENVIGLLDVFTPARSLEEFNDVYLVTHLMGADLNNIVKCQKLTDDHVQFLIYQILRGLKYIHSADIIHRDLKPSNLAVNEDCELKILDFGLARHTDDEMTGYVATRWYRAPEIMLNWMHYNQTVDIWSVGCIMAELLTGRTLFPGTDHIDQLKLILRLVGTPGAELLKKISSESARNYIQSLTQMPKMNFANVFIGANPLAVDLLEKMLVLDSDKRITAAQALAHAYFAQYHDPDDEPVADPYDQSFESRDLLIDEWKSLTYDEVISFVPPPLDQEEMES

Row | SMILES | IC50 (MAPK14 (human) [1]) | IC50 (MAPK14 (human) [2])
1 | Cc1c(F)cc(C(=O)NC2CC2)cc1-c1ccc(C(=O)NCc2ccc(C(F)(F)F)cc2C(F)(F)F)c[n+]1[O-] | < 10 µM | < 10 µM
2 | CCc1ccccc1CNC(=O)c1ccc(-c2cc(C(=O)NC3CC3)cc(F)c2C)[n+]([O-])c1 | < 10 µM | < 10 µM
3 | CCCNC(=O)c1ccc(-c2cc(C(=O)NC3CC3)cc(F)c2C)[n+]([O-])c1 | < 10 µM | < 10 µM
4 | Cc1ccc(CNC(=O)c2ccc(-c3cc(C(=O)NC4CC4)cc(F)c3C)[n+]([O-])c2)cc1C | < 10 µM | < 10 µM
5 | Cc1c(F)cc(C(=O)NC2CC2)cc1-c1ccc(C(=O)N[C@H](C)C(C)C)c[n+]1[O-] | < 10 µM | < 10 µM
6 | COC[C@H](C)NC(=O)c1ccc(-c2cc(C(=O)NC3CC3)cc(F)c2C)[n+]([O-])c1 | < 10 µM | < 10 µM
7 | Cc1c(F)cc(C(=O)NC2CC2)cc1-c1ccc(C(=O)NCC(C)(C)C)c[n+]1[O-] | < 10 µM | < 10 µM
8 | CCC(C)(C)NC(=O)c1ccc(-c2cc(C(=O)NC3CC3)cc(F)c2C)[n+]([O-])c1 | < 10 µM | < 10 µM
9 | Cc1ccc(C)c(CNC(=O)c2ccc(-c3cc(C(=O)NC4CC4)cc(F)c3C)[n+]([O-])c2)c1 | < 10 µM | < 10 µM
10 | Cc1c(F)cc(C(=O)NC2CC2)cc1-c1ccc(C(=O)NC(C)c2ccc(Cl)cc2)c[n+]1[O-] (centres undefined) | < 10 µM | < 10 µM
11 | CCC1CCCN(C(=O)c2ccc(-c3cc(C(=O)NC4CC4)cc(F)c3C)[n+]([O-])c2)C1 (centres undefined) | < 10 µM | < 10 µM
12 | CCC(CC)NC(=O)c1ccc(-c2cc(C(=O)NC3CC3)cc(F)c2C)[n+]([O-])c1 | < 10 µM | < 10 µM
